Common to all, as to format: biochemical
Experiment [1] concerns the target T1, Recombinant Src enzyme (Homo sapiens, UniProt P12931).
T1 construct: purchased Millipore 14-326; host or cells: Sf21 insect cells
The experiment is described as follows: Src HTRF assay. In outline: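 Run as for the FAK HTRF assay (same buffer, supplements, compound preparation and procedure), with dasatinib included. Reaction contained 0.5 μM biotin-tagged Tyk2 synthetic peptide, 5 nM Src made in Sf21 cells, and a pH7.4-buffer-prepared component at 10 μM final.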
(Time-resolved FRET reads energy transfer from a long-lived donor to a nearby acceptor.)

Experiment [2] has as its target T2, AURKB (Aurora B) enzyme (Homo sapiens, UniProt Q96GD4).
T2 construct: purchased Invitrogen PVR 130
Description: Aurora B HTRF assay. Particulars: read-out: AuroraB IC50. In outline:
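Enzyme (5 nM final) and ULight-labelled PLK Ser137 peptide (50 nM) reacted 1 h at room temperature; a 30 μM final component was also present. Detection used EDTA-containing buffer with europium anti-phospho-PLK(Ser137) antibody at 2 nM, 1 h, then time-resolved FRET readout.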

Experiment [3] concerns the target T3, recombinant human FAK1 (Homo sapiens, UniProt Q05397).
T3 construct: fused on or other part: N-terminal 6xHis tag
Description: FAK1 HTRF assay. In outline: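 IC50 values derive from HTRF % inhibition (ratio 665/620 nm, Eu–anti-phosphotyrosine 0.1 nM, SA-APC 12 nM). The kinase step ran 45 min at room temperature, pairing 10 nM His-FAK1(692–end) from baculovirus with 0.5 μM gastrin Tyr87 biotin-peptide and a reagent at 10 μM final, pH 7.4. Compound dilutions began at 10 μM.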

T1 sequence (P12931 whole entry): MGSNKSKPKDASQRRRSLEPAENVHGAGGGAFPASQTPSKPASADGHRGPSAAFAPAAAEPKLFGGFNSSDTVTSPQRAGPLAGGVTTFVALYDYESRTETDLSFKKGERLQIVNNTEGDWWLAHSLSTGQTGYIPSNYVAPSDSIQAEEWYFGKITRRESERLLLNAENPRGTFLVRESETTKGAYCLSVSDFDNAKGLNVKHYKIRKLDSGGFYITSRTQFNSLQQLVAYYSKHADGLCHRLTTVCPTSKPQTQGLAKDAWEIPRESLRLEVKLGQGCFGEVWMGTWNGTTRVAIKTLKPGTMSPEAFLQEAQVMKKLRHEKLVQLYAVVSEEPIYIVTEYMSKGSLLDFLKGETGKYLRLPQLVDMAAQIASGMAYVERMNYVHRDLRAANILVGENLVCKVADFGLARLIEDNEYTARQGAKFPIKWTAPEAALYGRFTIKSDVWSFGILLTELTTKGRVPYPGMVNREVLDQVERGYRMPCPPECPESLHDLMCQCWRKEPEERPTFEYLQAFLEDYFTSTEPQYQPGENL
T2 sequence (Q96GD4 whole entry): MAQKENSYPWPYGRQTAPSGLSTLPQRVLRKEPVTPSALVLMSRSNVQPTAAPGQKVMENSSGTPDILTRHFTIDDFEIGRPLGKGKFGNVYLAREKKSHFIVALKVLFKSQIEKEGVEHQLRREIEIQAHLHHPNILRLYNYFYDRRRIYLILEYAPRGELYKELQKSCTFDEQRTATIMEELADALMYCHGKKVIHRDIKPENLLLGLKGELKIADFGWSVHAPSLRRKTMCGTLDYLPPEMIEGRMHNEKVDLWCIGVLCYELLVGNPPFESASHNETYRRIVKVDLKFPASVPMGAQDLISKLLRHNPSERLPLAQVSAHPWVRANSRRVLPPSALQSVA
T3 sequence (Q05397 422-680 limits assumed): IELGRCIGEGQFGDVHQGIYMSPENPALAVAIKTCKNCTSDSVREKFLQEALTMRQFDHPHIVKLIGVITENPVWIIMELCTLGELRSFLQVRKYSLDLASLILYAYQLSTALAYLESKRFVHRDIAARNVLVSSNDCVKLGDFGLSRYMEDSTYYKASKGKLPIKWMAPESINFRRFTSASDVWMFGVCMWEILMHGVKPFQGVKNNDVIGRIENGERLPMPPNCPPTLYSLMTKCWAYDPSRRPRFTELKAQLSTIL

On to `COc1cc(N2CCNCC2)ccc1Nc1cc2c(cn1)C(C)(C)CN2S(=O)(=O)c1cccc2cccnc12` [Example 635], for which the figures for the IC50 in experiment [1], in experiment [2] and in experiment [3] were more than 1000 nM, more than 1000 nM and less than 20 nM, respectively.

On to `Cc1cc(Nc2ncc3ccn(S(=O)(=O)c4ccccc4C#N)c3n2)ccc1N1CCNCC1` [Example 212], for which the IC50 in experiment [1], in experiment [2] and in experiment [3] was less than 20 nM throughout.

In the case of `CN(c1ncccc1CN1CC(C)(C)c2cnc(Nc3ccc(N4CCNCC4)cc3)nc21)S(C)(=O)=O` [Example 437], the IC50 in experiment [1], in experiment [2] and in experiment [3] was more than 1000 nM throughout.

As to `COc1cc(N2CCN(C)CC2)ccc1Nc1ncc2c(n1)N(S(=O)(=O)c1cccc3cccnc13)CC2(C)C` [Example 504], the IC50 is more than 1000 nM in experiment [1], more than 1000 nM in experiment [2] and less than 20 nM in experiment [3].

For the compound `O=S(=O)(c1cccc2cccnc12)n1ncc2cnc(Nc3ccc(N4CCC(O)CC4)cc3)cc21` [Example 345], the results for the IC50 in experiment [1], in experiment [2] and in experiment [3] were more than 1000 nM, less than 20 nM and less than 20 nM, respectively.

For `CS(=O)(=O)N(CCN)c1ccccc1Cn1ccc2cnc(Nc3ccc(N4CCNCC4)cc3)nc21` [Example 558], the IC50 in experiment [1], in experiment [2] and in experiment [3] was more than 1000 nM throughout.

Take `COc1cc(N2CCOCC2)ccc1Nc1cc2c(ccn2S(=O)(=O)c2cccc3cccnc23)cn1` [Example 401]: the IC50 in experiment [1] was more than 1000 nM; in experiment [2], less than 20 nM; in experiment [3] it was less than 20 nM.

With `Cc1cc(Nc2ncc3ccn(S(=O)(=O)c4cccc5cccnc45)c3n2)ccc1N1CCNCC1` [Example 196], the IC50 in experiment [1], in experiment [2] and in experiment [3] was less than 20 nM in each case.

Regarding `CN1C(=O)CCc2cc(Nc3ncc4ccn(Cc5cccnc5N(C)S(C)(=O)=O)c4n3)ccc21` [Example 136], the IC50 in experiment [1], in experiment [2] and in experiment [3] was less than 20 nM in each case.

`CN(c1ncccc1Cn1ccc2cnc(Nc3ccc(N4CCOCC4)cn3)nc21)S(C)(=O)=O` [Example 107]: the IC50 was more than 1000 nM in experiment [1] and less than 20 nM in experiment [2].

Consider `FC(F)Oc1ccccc1Cn1ccc2cnc(Nc3ccc4ncsc4c3)cc21` [Example 20], for which the concentration for half-maximal inhibition (IC50) in experiment [1] and in experiment [2] was more than 1000 nM in each case.

Turning to `O=S(=O)(c1cccc2ccccc12)n1ccc2cnc(Nc3ccc(N4CCNCC4)cc3)nc21` [Example 219], the IC50 in experiment [1], in experiment [2] and in experiment [3] was less than 20 nM in each case.

As for `COc1cc(Nc2ncc3ccn(Cc4ccccc4N(C)S(C)(=O)=O)c3n2)ccc1N1CCN(C)CC1` [Example 429], the IC50 in experiment [1], in experiment [2] and in experiment [3] was less than 20 nM each time.

As for `CN(c1ccccc1C(=O)N1CC(C)(C)c2cnc(Nc3ccc(N4CCNCC4)cc3)nc21)S(C)(=O)=O` [Example 528], the IC50 in experiment [1], in experiment [2] and in experiment [3] was more than 1000 nM each time.

Turning to `CC(=O)Nc1cccc(Nc2cc3c(cn2)cnn3S(=O)(=O)c2ccccc2OC(F)(F)F)c1` [Example 86], the IC50 in experiment [1] and in experiment [2] was more than 1000 nM in each case.

Turning to `CN(c1ncccc1Cn1ccc2cnc(Nc3ccc(N4CCNCC4=O)cc3)nc21)S(C)(=O)=O` [Example 102], the IC50 is more than 1000 nM in experiment [1] and less than 20 nM in experiment [2].

As for `CN(c1cccc(Cn2ccc3cnc(Nc4ccc5c(c4)CCC(=O)N5)nc32)c1)S(C)(=O)=O` [Example 50], the half-inhibitory concentration (IC50) in experiment [1] is more than 1000 nM; in experiment [2], less than 20 nM.

Regarding `CN(C)CCOc1cccc(Nc2cc3c(ccn3S(=O)(=O)c3ccccc3OC(F)(F)F)cn2)c1` [Example 126], the IC50 is more than 1000 nM in experiment [1] and less than 20 nM in experiment [2].

For the compound `COc1ccccc1S(=O)(=O)n1ccc2cnc(Nc3ccc(N4CCNCC4)cc3)cc21` [Example 343], the IC50 is more than 1000 nM in experiment [1], less than 20 nM in experiment [2] and less than 20 nM in experiment [3].

By IC50 is commonly meant the concentration that gives 50% inhibition.

Source of the values: patent US20160222014A1, “COMPOUNDS FOR REGULATING FAK AND/OR SRC PATHWAYS” (ASANA BIOSCIENCES, LLC, priority 2013, published 2016).
